According to PubChem BioAssay (NCI):
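96-well plates; 48 h exposure; 5 concentrations. Endpoints by linear interpolation between flanking doses. Not reached: highest tested concentration assigned. At the TGI there is no net growth.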

Legend:
Assay in all cases: DTP human tumour cell line panel, 48 h
[1] = test system: 786-0 renal
[2] = test system: A498 renal
[3] = test system: A549 NSCLC
[4] = test system: ACHN renal
[5] = test system: BT-549 breast
[6] = test system: CAKI-1 renal
[7] = test system: CCRF-CEM leukemia
[8] = test system: COLO 205 colon
[9] = test system: DU-145 prostate
[10] = test system: EKVX NSCLC
[11] = test system: HCC-2998 colon
[12] = test system: HCT-116 colon
[13] = test system: HCT-15 colon
[14] = test system: HOP-62 NSCLC
[15] = test system: HS 578T breast
[16] = test system: HT29 colon
[17] = test system: IGROV1 ovarian
[18] = test system: KM12 colon
[19] = test system: LOX IMVI melanoma
[20] = test system: M14 melanoma
[21] = test system: MALME-3M melanoma
[22] = test system: MCF7 breast
[23] = test system: MDA-MB-231 breast
[24] = test system: MDA-MB-435
[25] = test system: MDA-N
[26] = test system: MOLT-4 leukemia
[27] = test system: NCI-H226 lung
[28] = test system: NCI-H23 lung
[29] = test system: NCI-H460 lung
[30] = test system: NCI-H522 lung
[31] = test system: NCI/ADR-RES ovarian
[32] = test system: OVCAR-3 ovarian
[33] = test system: OVCAR-4 ovarian
[34] = test system: OVCAR-5 ovarian
[35] = test system: OVCAR-8 ovarian
[36] = test system: PC-3 prostate
[37] = test system: RPMI-8226 leukemia
[38] = test system: RXF 393 renal
[39] = test system: SF-268 CNS
[40] = test system: SF-295 CNS
[41] = test system: SF-539 CNS
[42] = test system: SK-MEL-2 melanoma
[43] = test system: SK-MEL-28 melanoma
[44] = test system: SK-MEL-5 melanoma
[45] = test system: SK-OV-3 ovarian
[46] = test system: SN12C renal
[47] = test system: SNB-75 CNS
[48] = test system: SW-620 colon
[49] = test system: T-47D breast
[50] = test system: TK-10 renal
[51] = test system: U251 CNS
[52] = test system: UACC-257 melanoma
[53] = test system: UACC-62 melanoma
[54] = test system: UO-31 renal
[55] = test system: HL-60(TB) leukemia
[56] = test system: HOP-92 NSCLC
[57] = test system: K-562 leukemia
[58] = test system: SNB-19 CNS
[59] = test system: SR leukemia

For `NC(Cc1ccc(S(=O)(=O)O)cc1)C(=O)NC(Cc1ccc(S(=O)(=O)O)cc1)C(=O)NC(Cc1ccc(S(=O)(=O)O)cc1)C(=O)NC(Cc1ccc(S(=O)(=O)O)cc1)C(=O)O` (stereo unspecified), the TGI [1] was > 100 µM, the TGI [2] was > 100 µM and the TGI [3] was > 100 µM. For the same compound, the TGI [4] was > 100 µM, the TGI [5] was > 100 µM and the TGI [6] was > 100 µM. For the same compound, the TGI [7] was > 100 µM, the TGI [8] was > 100 µM and the TGI [9] was > 100 µM. For the same compound, the TGI [10] was > 100 µM, the TGI [11] was > 100 µM and the TGI [12] was > 100 µM. The TGI [13] was > 100 µM, the TGI [14] was > 100 µM and the TGI [15] was > 100 µM. The TGI [16] was > 100 µM, the TGI [17] was > 100 µM and the TGI [18] was > 100 µM. For the same compound, the TGI [19] was > 100 µM, the TGI [20] was > 100 µM and the TGI [21] was > 100 µM. For the same compound, the TGI [22] was > 100 µM, the TGI [23] was > 100 µM and the TGI [24] was > 100 µM. The TGI [25] was > 100 µM, the TGI [26] was > 100 µM and the TGI [27] was > 100 µM. For the same compound, the TGI [28] was > 100 µM, the TGI [29] was > 100 µM and the TGI [30] was > 100 µM. For the same compound, the TGI [31] was > 100 µM, the TGI [32] was > 100 µM and the TGI [33] was > 100 µM. The TGI [34] was > 100 µM, the TGI [35] was > 100 µM and the TGI [36] was > 100 µM. The TGI [37] was > 100 µM, the TGI [38] was > 100 µM and the TGI [39] was > 100 µM. The TGI [40] was > 100 µM, the TGI [41] was > 100 µM and the TGI [42] was > 100 µM. The TGI [43] was > 100 µM, the TGI [44] was > 100 µM and the TGI [45] was > 100 µM. The TGI [46] was > 100 µM, the TGI [47] was > 100 µM and the TGI [48] was > 100 µM. For the same compound, the TGI [49] was > 100 µM, the TGI [50] was > 100 µM and the TGI [51] was > 100 µM. The TGI [52] was > 100 µM, the TGI [53] was > 100 µM and the TGI [54] was > 100 µM.
For `CC(=O)O[C@@H]1C[C@@]2(C)[C@@H]3CC=C4[C@@H](C[C@H](O)C(=O)C4(C)C)[C@]3(C)C(=O)C[C@]2(C)[C@H]1[C@@](C)(O)C(=O)/C=C/C(C)(C)OC(C)=O`, the TGI [1] was > 70.4 µM, the TGI [2] was 0.0591 µM and the TGI [3] was > 48.2 µM. For the same compound, the TGI [4] was 3.44 µM, the TGI [5] was 0.713 µM and the TGI [6] was 0.397 µM. The TGI [7] was > 69.2 µM, the TGI [8] was > 39.7 µM and the TGI [9] was 34.1 µM. The TGI [10] was 26 µM, the TGI [11] was 16.5 µM and the TGI [12] was > 72.9 µM. The TGI [13] was 12.3 µM, the TGI [55] was > 20.1 µM and the TGI [14] was 5.29 µM. The TGI [56] was 6.98 µM, the TGI [15] was > 100 µM and the TGI [16] was > 100 µM. For the same compound, the TGI [17] was 10.2 µM, the TGI [57] was > 100 µM and the TGI [18] was 39.2 µM. For the same compound, the TGI [19] was > 33 µM, the TGI [20] was 14.9 µM and the TGI [22] was > 100 µM. For the same compound, the TGI [23] was > 21.8 µM, the TGI [24] was 37.9 µM and the TGI [25] was 14.8 µM. For the same compound, the TGI [26] was > 31.6 µM, the TGI [27] was 3.31 µM and the TGI [28] was 24.1 µM. The TGI [29] was 16.3 µM, the TGI [30] was 4.55 µM and the TGI [31] was 43.8 µM. The TGI [32] was > 100 µM, the TGI [33] was > 32.3 µM and the TGI [34] was > 86 µM. For the same compound, the TGI [35] was > 49.1 µM, the TGI [36] was > 47 µM and the TGI [37] was > 32.2 µM. For the same compound, the TGI [39] was > 41.9 µM, the TGI [40] was 34.1 µM and the TGI [41] was 12.6 µM. For the same compound, the TGI [42] was > 25.4 µM, the TGI [43] was 29.4 µM and the TGI [44] was 11 µM. For the same compound, the TGI [45] was 51.5 µM, the TGI [46] was > 44.8 µM and the TGI [58] was 7.38 µM. For the same compound, the TGI [47] was 25.3 µM, the TGI [59] was > 53.4 µM and the TGI [48] was 35.6 µM. The TGI [49] was > 67.8 µM, the TGI [50] was > 37.8 µM and the TGI [51] was 10.5 µM. For the same compound, the TGI [52] was 50.4 µM, the TGI [53] was 27.9 µM and the TGI [54] was 0.881 µM.
